Laboratory results: ChEMBL document CHEMBL5512655, “Discovery of indolylacryloyl-derived oxacins as novel potential broad-spectrum antibacterial candidates” (Eur J Med Chem, 2024)
≈ marks a conversion by molar mass, not a printed value. Calls of active or inactive are those of the source. No cut-off for these calls is given here.

Tests used:
[1] = test system: Escherichia coli; experiment: Induction of ROS production in Escherichia coli assessed as fluorescence intensity at 2 times of MIC by DCFH-DA (dichlorofluorescin diacetate) probe based assay; type: functional
[2] = test system: Staphylococcus aureus; experiment: Induction of lipid peroxidation in methicillin-resistant Staphylococcus aureus N315 assessed as malondialdehyde (MDA) level production at 4 time of MIC; type: functional, organism-based
[3] = test system: Pseudomonas aeruginosa; experiment: Potency index, ratio of norfloxacin MIC to test compound MIC for antibacterial activity against Pseudomonas aeruginosa ATCC 27853 assessed as inhibition of bacterial growth measured after 24 hrs incubation; type: functional
[4] = test system: Cell membrane; experiment: Induction of cell membrane damage in Escherichia coli assessed as increase in density of red fluorescence at 4 times of MIC by Calcein-AM/PI dual staining based fluorescence microscopy; type: cell membranes
[5] = test system: Escherichia coli; experiment: Induction of ROS production in Escherichia coli assessed as fluorescence intensity by DCFH-DA (dichlorofluorescin diacetate) probe based assay; type: functional, organism-based
[6] = test system: Pseudomonas aeruginosa; experiment: Potency index, ratio of norfloxacin MIC to test compound MIC for antibacterial activity against Pseudomonas aeruginosa assessed as inhibition of bacterial growth measured after 24 hrs incubation; type: functional
[7] = test system: Acinetobacter baumannii; experiment: Antibacterial activity against Acinetobacter baumannii assessed as inhibition of bacterial growth measured after 24 hrs incubation; type: functional
[8] = test system: Staphylococcus aureus; experiment: Antibacterial activity against methicillin-resistant Staphylococcus aureus N315 assessed as reduction in bacterial burden at 2 to 4 times of MIC measured within 5 hrs by time-dependent kinetics assay; type: functional, organism-based
[9] = test system: Escherichia coli; experiment: Induction of lipid peroxidation in Escherichia coli assessed as malondialdehyde (MDA) level production; type: functional, organism-based
[10] = Cytotoxicity against HUVEC cells assessed as cell viability at 64 ug/ml measured after 24 hrs relative to control; type: toxicity, cell-based; conditions: human, at 64 µg/mL, read-out: Activity
[11] = test system: Escherichia coli; experiment: Anti-biofilm effect in Escherichia coli assessed as biofilm destruction by measuring reduced biofilm content at MIC; type: functional
[12] = test system: Staphylococcus aureus; experiment: Reduction in metabolic activity in methicillin-resistant Staphylococcus aureus N315 by Alamar Blue assay; type: functional, organism-based
[13] = test system: Escherichia coli; experiment: Antibacterial activity against Escherichia coli assessed as resistance development measured after 11 generations; type: functional, organism-based
[14] = test system: Staphylococcus aureus; experiment: Reduction in metabolic activity in methicillin-resistant Staphylococcus aureus N315 at 6 times of MIC by Alamar Blue assay relative to control; type: functional; parameters: scale not given: the % may be the effect or the level left

In the case of `CCOC(=O)Cn1cc(/C=C(\C#N)C(=O)N2CCN(c3cc4c(cc3F)c(=O)c(C(=O)O)cn4CC)CC2)c2ccccc21`, the Activity [1] is reported as over 50%, the Activity [2] is reported as “Active” and the Ratio [3] is reported as 1. For the same compound, the Activity [4] was “Active”, the Activity [5] was “Dose-Dependent Effect” and the Ratio [6] was 1. The MIC [7] was 0.25 µg/mL (≈ 0.417 µM), the Activity [8] was “Active” and the Activity [9] was “Dose-Dependent Effect”. The viability at 24 h, 64 ug/ml [10] was 85%, the “inhibition (INH)” value [11] was 82.7% and the Activity [12] was “Dose-Dependent Effect”. The Activity [13] was “inactive” and the Activity [14] was over 50%.
